Reference: paper PMC8821551, “Binding of cationic analogues of α-MSH to lipopolysaccharide and disruption of the cytoplasmic membranes caused bactericidal action against Escherichia coli” (Scientific Reports, 2022)
Residues, ends and D or L forms follow the SMILES beside them.

What was measured:
Assay type in all cases: cell-based, Escherichia coli
E. coli ATCC 25922 [1] = experiment: Killing assay (killing kinetics), logarithmic phase cells; details: for concentration at which a bactericidal effect (> 3 log reduction) was achieved: logarithmic phase E. coli cells (Fig. 1); for log reduction in cell viability: average ± SE, SEM
Description: (§1) For this study, a well-characterized strain of E. coli (ATCC 25922) was used. The strain was stored at − 80 °C in 15% (v/v) glycerol until sub-cultured onto LB agar plates for use.
(§2) The antibacterial activity of α-MSH and its cationic analogues was determined against both logarithmic (2–3 h) and stationary (16–18 h) phase of E. coli cells in LB medium. The bacterial suspension was pelleted, washed, and diluted in HEPES-glucose buffer (5 mM HEPES, 20 mM glucose, pH 7.4) to adjust the cell density by measuring the OD = 0.5 (10^8 CFU/mL) at 600 nm using a spectrophotometer. This suspension was used to obtain the desired inoculum sizes (10^5 CFU/mL, 10^6 CFU/mL, and 10^7 CFU/mL). The inoculums were exposed to various concentrations of peptides (1 µM, 2 µM, 5 µM, and 10 µM) and incubated at 37 °C. Untreated E. coli cells were also included as a control. At selected time points (0 min, 15 min, 30 min, 60 min, and 120 min), aliquots were taken out, and survival of E. coli cells was determined by quantitative plating on LB agar after appropriate dilution in the same buffer. The plates were incubated overnight at 37 °C, followed by colony counting. Each experiment was performed at least three times on three independent days.

[2] = test system: stationary phase E. coli cells; experiment: Killing assay, stationary phase cells; details: 10^5 CFU/mL
Description: as §1, §2

E. coli outer membrane = experiment: Outer membrane permeabilization assay (NPN uptake); details: 10^8 CFU/mL mid-log cells, 10 μM NPN, relative to 10 µM polymyxin B = 100%
Description: The outer membrane permeabilization assay was done as described in the literature with slight modifications. Briefly, bacterial cells were grown to mid-log phase in LB medium, washed and diluted to 10^8 CFU/mL in HEPES-glucose buffer. Next, this bacterial suspension was treated with 10 μM NPN probe and subsequently challenged with increasing concentrations of peptides (1 µM to 20 µM). Changes in the fluorescence intensity of NPN were measured with the help of Shimadzu RF-5301 PC spectrofluorimeter (excitation at 350 nm and emission at 420 nm). Increased intensity of emission resulted from the damage to the bacterial outer membrane and was measured until no further increase in fluorescence was observed. NPN uptake was calculated using the following formula: %NPNuptake=Fobs-F0/F100-F0×100 where Fobs is the NPN fluorescence intensity after the peptide treatment, F0 is the NPN fluorescence with untreated E. coli cells, and F100 is the NPN fluorescence in the presence of 10 µM polymyxin B (a positive control).

E. coli ATCC 25922 [3] = experiment: Transmission electron microscopy (TEM) of treated cells; details: 100 µM peptide, 2 h, 37 °C, 10^8 CFU/mL mid-log cells
Description: To detect ultra-structural changes in E. coli on peptide treatment, TEM was used[16]. In brief, the mid-log E. coli cells (10^8 CFU/mL) were exposed with 100 µM concentration of all peptides independently for 2 h at 37 °C. After treatment, the cells were washed with PB buffer and fixed with 2.5% glutaraldehyde overnight at 4 °C. Next, the samples were post-fixed in 1.0% OsO4 and stained with uranyl acetate. After fixation, cells were dehydrated in a series of graded acetone and embedded in epoxy resin. Thin sections were made using a microtome (Leica EM UC6), which were transferred onto copper grids and stained with uranyl acetate followed by lead citrate. Samples were viewed via a transmission electron microscope (JEOL 2100F) to detect the ultrastructural and other morphological changes in the bacterial cells.

E. coli cells = experiment: Membrane permeabilization assay (PI uptake, flow cytometry); details: 1 h; for PI positive cells: at lower and higher concentrations, from 2 to 10 µM, 10^6 CFU/mL, PI 1.3 µg/mL, 37 °C, flow cytometry; for cell viability on plating the cell suspension used for the PI uptake assay, in words: same cell density and peptide concentrations as PI uptake experiment
Description: Membrane permeabilization of E. coli cells was determined via propidium iodide (PI) uptake assay through flow cytometry as described previously with slight modifications. Briefly, mid-log phase E. coli cells were adjusted to 10^6 CFU/mL in the HEPES-glucose buffer. Next, cells were incubated with propidium iodide (PI) at 1.3 µg/mL concentration for 30 min in the dark. After incubation, PI-loaded cells were treated with a range of peptide concentrations, i.e., 1 µM, 2 µM, 5 µM, and 10 µM, at 37 °C for 1 h, and PI fluorescence intensity was measured through Becton Dickinson (BD) FACS verse (San Jose, CA) flow cytometer using excitation at 544 nm and emission at 620 nm.
Figure S2: Histograms of E. coli cells treated with 2 µM concentration of α-MSH and its analogues and 1 µM concentration of polymyxin B for 1 h. Towards monitoring the membrane permeabilizations of E. coli cells, propidium iodide (PI) uptake assay through flow cytometry was performed using the previously standardized method with mild modifications ^2. Briefly, mid-log phase grown E. coli cells (10^6 CFU/mL) suspended in the HEPES-glucose buffer were incubated with propidium iodide (PI) at a concentration of 1.3 µg/mL for 30 min in dark. After incubation, PI loaded cells were treated with a range of peptide concentrations; 1 µM, 2 µM, 5 µM and 10 µM at 37 °C for 1 h, and PI fluorescence intensity was measured through Becton Dickinson (BD) FACS verse (San Jose, CA) flow cytometer using excitation at 544 nm and emission at 620 nm.

[4] = test system: E. coli cytoplasmic or inner membrane; experiment: Membrane depolarization assay (DiSC3(5)); details: DiSC3(5) 0.4 µM, 0.2 mM EDTA, 10^6 CFU/mL mid-log cells, HEPES-glucose buffer; peptide 1 to 10 µM
Description: The membrane depolarization of E. coli cells was determined using a potentiometric fluorescent probe DiSC3(5), as described elsewhere. Briefly, mid-log phase E. coli cells were diluted to 10^6 CFU/mL in the same HEPES-glucose buffer and were incubated with DiSC3(5) and EDTA at 0.4 µM and 0.2 mM concentrations, respectively, for 1 h in the dark at 37 °C, till the maximum uptake of the probe occurred. Increasing concentrations of the studied peptides from 1 µM to 10 µM were then added to these dye-loaded cells in a quartz cuvette, and the fluorescence intensity was measured on spectrofluorimeter (Shimadzu RF-5301 PC) set as excitation at 622 nm and emission at 670 nm. The increase in fluorescence intensity accounted for the dissipation of membrane potential caused due to peptide treatment. Cells treated with 10 µM melittin were used as a positive control. Simultaneously, the dye-loaded cells were plated onto LB agar to estimate bacterial cell death.

[5] = peptide 1 μM, HEPES-glucose buffer, average of three independent days
[6] = peptide 20 μM (highest concentration)

Compound: CSCC[C@H](NC(=O)[C@H](CCCCN)NC(=O)[C@H](Cc1ccc(O)cc1)NC(=O)[C@H](CCCCN)NC(C)=O)C(=O)N[C@@H](C)C(=O)N[C@@H](Cc1c[nH]cn1)C(=O)N[C@@H](Cc1ccccc1)C(=O)N[C@@H](CCCNC(=N)N)C(=O)N[C@@H](Cc1c[nH]c2ccccc12)C(=O)NCC(=O)N[C@@H](CCCCN)C(=O)N1CCC[C@H]1C(=O)N[C@H](C(N)=O)C(C)C [KKA-MSH] (Ac-KYKMAHFRWGKPV-NH2)
- concentration at which a bactericidal effect (> 3 log reduction) was achieved (E. coli ATCC 25922 [1]): 5 µM
- log reduction in cell viability (E. coli ATCC 25922 [1]; logarithmic phase, 10^5 CFU/mL, HEPES-glucose buffer pH 7.4, 37 °C, peptide 1 µM, 1 h, three independent experiments): 1.8 ± 0.1 log
- log reduction in cell viability (E. coli ATCC 25922 [1]; logarithmic phase, 10^5 CFU/mL, HEPES-glucose buffer pH 7.4, 37 °C, peptide 1 µM, 2 h, three independent experiments): 2.1 ± 0.1 log
- log reduction in cell viability (E. coli ATCC 25922 [1]; logarithmic phase, 10^5 CFU/mL, HEPES-glucose buffer pH 7.4, 37 °C, peptide 2 µM, 1 h, three independent experiments): 2.7 ± 0.3 log
- log reduction in cell viability (E. coli ATCC 25922 [1]; logarithmic phase, 10^5 CFU/mL, HEPES-glucose buffer pH 7.4, 37 °C, peptide 2 µM, 2 h, three independent experiments): 2.9 ± 0.2 log
- change of killing activity at 5 µM against lower concentrations, in words (E. coli ATCC 25922 [1]; logarithmic phase, 10^5 CFU/mL, peptide 5 µM): no change in its activity
- bactericidal effect (> 3 log reduction), in words (E. coli ATCC 25922 [1]; logarithmic phase, 10^5 CFU/mL, peptide 2, 5 and 10 µM, 1 h of incubation): accomplished bactericidal effect
- log reduction in cell viability (E. coli ATCC 25922 [1]; logarithmic phase, 10^6 CFU/mL, peptide 10 µM, 2 h, three independent days): 3.5 ± 0.2 log
- log reduction in cell viability (E. coli ATCC 25922 [1]; logarithmic phase, 10^7 CFU/mL, peptide 10 µM, 2 h, three independent days): 2.7 ± 0.02 log
- log reduction in cell viability ([2]; HEPES-glucose buffer, 37 °C, peptide 10 µM, 2 h, mean ± SE, three independent days, SEM): 2.2 ± 0.2 log
- killing activity against stationary phase cells, in words ([2]; peptide 10 µM, up to 2 h): could not obliterate the stationary phase cells
- %NPN uptake (E. coli outer membrane; [5]): 12.5%
- %NPN uptake (E. coli outer membrane; [6]): 55%
- ultrastructural changes by TEM, in words (E. coli ATCC 25922 [3]): complete collapse of the E. coli membrane
- PI positive cells (E. coli cells): more than 80%
- cell viability on plating the cell suspension used for the PI uptake assay, in words (E. coli cells): significant reduction in the cell viability
- lowest concentration that induced depolarization of E. coli inner membrane [4]: 2 µM

Compound: CSCC[C@H](NC(=O)[C@H](CCCCN)NC(=O)[C@H](Cc1ccc(O)cc1)NC(=O)[C@H](CCCCN)NC(C)=O)C(=O)N[C@@H](CCCCN)C(=O)N[C@@H](Cc1c[nH]cn1)C(=O)N[C@@H](Cc1ccccc1)C(=O)N[C@@H](CCCNC(=N)N)C(=O)N[C@@H](Cc1c[nH]c2ccccc12)C(=O)NCC(=O)N[C@@H](CCCCN)C(=O)N1CCC[C@H]1C(=O)N[C@H](C(N)=O)C(C)C [KKK-MSH] (Ac-KYKMKHFRWGKPV-NH2)
- concentration at which a bactericidal effect (> 3 log reduction) was achieved (E. coli ATCC 25922 [1]): 1 µM
- incubation time to complete eradication of the cells (E. coli ATCC 25922 [1]; logarithmic phase, 10^5 CFU/mL, HEPES-glucose buffer, 37 °C, peptide 1 µM): ≤ 15 min
- incubation time to complete eradication of the cells (E. coli ATCC 25922 [1]; logarithmic phase, 10^5 CFU/mL, HEPES-glucose buffer, 37 °C, peptide 2 µM): ≤ 15 min
- log reduction in cell viability (bactericidal effect) (E. coli ATCC 25922 [1]; logarithmic phase, 10^5 CFU, peptide 1 µM, within 15 min): > 3 log
- complete eradication of the cells, in words (E. coli ATCC 25922 [1]; logarithmic phase, 10^6 CFU/mL, peptide 1 µM): not at 1 µM concentration
- incubation time to complete eradication of the cells (E. coli ATCC 25922 [1]; logarithmic phase, 10^6 CFU/mL, peptide 2 µM): 60 min
- incubation time to complete eradication of the cells (E. coli ATCC 25922 [1]; logarithmic phase, 10^6 CFU/mL, peptide 5 µM): 30 min
- incubation time to complete eradication of the cells (E. coli ATCC 25922 [1]; logarithmic phase, 10^6 CFU/mL, peptide 10 µM): 15 min
- incubation time to no viable cells (E. coli ATCC 25922 [1]; logarithmic phase, 10^7 CFU/mL, peptide 10 µM): 1 h
- lowest concentration at which the bactericidal effect was maintained (E. coli ATCC 25922 [1]; logarithmic phase, high cell density): 2 µM
- incubation time to complete removal of the cells ([2]; peptide 1 µM): 2 h
- log reduction in the viability of the stationary phase cells ([2]; peptide 1 µM, 1 h): 2.5 log
- incubation time to eradication of the stationary phase cells ([2]; peptide 10 µM): 30 min
- %NPN uptake (E. coli outer membrane; [5]): 30.7%
- %NPN uptake (E. coli outer membrane; peptide 2 μM): 34%
- %NPN uptake (E. coli outer membrane; peptide 5 μM): 55.6%
- %NPN uptake (E. coli outer membrane; peptide 10 μM): 77.6%
- %NPN uptake (E. coli outer membrane; [6]): 86%
- ultrastructural changes by TEM, in words (E. coli ATCC 25922 [3]): complete collapse of the E. coli membrane
- PI positive cells (E. coli cells): more than 80%
- cell viability on plating the cell suspension used for the PI uptake assay, in words (E. coli cells): significant reduction in the cell viability
- lowest concentration that induced depolarization of E. coli inner membrane [4]: 2 µM
